Results from patent publication US9486435B2, “(Het)aryl-p-quinone derivatives for treatment of mitochondrial diseases” (Edison Pharmaceuticals, Inc., priority 2008, dated 2016).

Key:
Assay type in all cases: cell-based
[1] = test system: human dermal fibroblasts from Huntington's patients; test: Rescue of BSO-stressed fibroblasts from Huntington's patients; conditions: Fibroblast, Huntington's fibroblasts GM 04281, BSO stress, read-out: protection against Huntington's, EC50
Description: (§1) An initial screen was performed to identify compounds effective for the amelioration of redox disorders. Test samples, 4 reference compounds (Idebenone, decylubiquinone, Trolox and α-tocopherol acetate), and solvent controls were tested for their ability to rescue FRDA fibroblasts stressed by addition of L-buthionine-(S,R)-sulfoximine (BSO), as described in Jauslin et al., Hum. Mol. Genet. 11(24):3055 (2002), Jauslin et al., FASEB J. 17:1972-4 (2003), and International Patent Application WO 2004/003565. […] This specific BSO-mediated cell death can be prevented by administration of antioxidants or molecules involved in the antioxidant pathway, such as α-tocopherol, selenium, or small molecule glutathione peroxidase mimetics. However, antioxidants differ in their potency, i.e. the concentration at which they are able to rescue BSO-stressed FRDA fibroblasts.
(§2) Test samples were screened according to the following protocol: A culture with FRDA fibroblasts was started from a 1 ml vial with approximately 500,000 cells stored in liquid nitrogen. Cells were propagated in 10 cm cell culture dishes by splitting every third day in a ratio of 1:3 until nine plates were available. Once confluent, fibroblasts were harvested. For 54 micro titer plates (96 well-MTP) a total of 14.3 million cells (passage eight) were re-suspended in 480 ml medium, corresponding to 100 μl medium with 3,000 cells/well. The remaining cells were distributed in 10 cm cell culture plates (500,000 cells/plate) for propagation. The plates were incubated overnight at 37° C. in a atmosphere with 95% humidity and 5% CO2 to allow attachment of the cells to the culture plate.
(§3) MTP medium (243 μl) was added to a well of the microtiter plate. The test compounds were unfrozen, and 7.5 μl of a 5 mM stock solution was dissolved in the well containing 243 μl medium, resulting in a 150 μM master solution. Serial dilutions from the master solution were made. The period between the single dilution steps was kept as short as possible (generally less than 1 second).
(§4) Plates were kept overnight in the cell culture incubator. The next day, 10 μl of a 10 mM BSO solution were added to the wells, resulting in a 1 mM final BSO concentration. Forty-eight hours later, three plates were examined under a phase-contrast microscope to verify that the cells in the 0% control (wells E1-H1) were clearly dead. The medium from all plates was discarded, and the remaining liquid was removed by gently tapping the plate inversed onto a paper towel.
(§5) 100 μl of PBS containing 1.2 μM Calcein AM were then added to each well. The plates were incubated for 50-70 minutes at room temperature. After that time the PBS was discarded, the plate gently tapped on a paper towel and fluorescence (excitation/emission wavelengths of 485 nm and 525 nm, respectively) was read on a Gemini fluorescence reader. Data was imported into Microsoft Excel (EXCEL is a registered trademark of Microsoft Corporation for a spreadsheet program) and used to calculate the EC50 concentration for each compound.
Compounds of the invention were tested using the screen as described in Example A, but substituting FRDA cells with Huntington's cells obtained from the Coriell Cell Repositories (Camden, N.J.; repository number GM 04281). The compounds were tested for their ability to rescue human dermal fibroblasts from Huntington's patients from oxidative stress.

[2] = test system: human dermal fibroblasts from Parkinson's disease patients; test: Rescue of BSO-stressed fibroblasts from Parkinson's disease patients; conditions: Fibroblast, PD fibroblasts AG20439, BSO stress, read-out: protection against PD, EC50
Description: as §1, §2, §3, §4, §5
(§6) Compounds of the invention were screened as described in Example A, but substituting FRDA cells with Parkinson's Disease (PD) cells obtained from the Coriell Cell Repositories (Camden, N.J.; repository number AG20439). The compounds were tested for their ability to rescue human dermal fibroblasts from Parkinson's disease patients from oxidative stress.

[3] = test system: human dermal fibroblasts from LHON patients; test: Rescue of BSO-stressed fibroblasts from LHON patients; conditions: Fibroblast, LHON fibroblasts GM03858, BSO stress, read-out: protection against LHON, EC50
Description: as §1, §2, §3, §4, §5
as §6, with “Leber's Hereditary Optic Neuropathy (LHON)” for “Parkinson's Disease (PD)”, “GM03858).” for “AG20439).”, “LHON” for “Parkinson's disease”

[4] = test system: Human dermal fibroblasts from Friedreich's Ataxia patients; test: Rescue of BSO-stressed FRDA fibroblasts (Calcein AM viability); conditions: FRDA fibroblasts GM04078, BSO stress, read-out: protection against FRDA, EC50
Description: as §1
MEM (a medium enriched in amino acids and vitamins, catalog no. 1-31F24-I) and Medium 199 (M199, catalog no. 1-21F22-I) with Earle's Balanced Salts, without phenol red, were purchased from Bioconcept. Fetal Calf Serum was obtained from PAA Laboratories. Basic fibroblast growth factor and epidermal growth factor were purchased from PeproTech. Penicillin-streptomycin-glutamine mix, L-buthionine (S,R)-sulfoximine, (+)-α-tocopherol acetate, decylubiquinone, and insulin from bovine pancreas were purchased from Sigma. Trolox (6-hydroxy-2,5,7,8-tetramethylchromane-2-carboxylic acid) was obtained from Fluka. Idebenone was obtained from Chemo Iberica. Calcein AM was purchased from Molecular Probes. Cell culture medium was made by combining 125 ml M 199 EBS, 50 ml Fetal Calf Serum, 100 U/ml penicillin, 100 μg/ml streptomycin, 2 mM glutamine, 10 μg/ml insulin, 10 ng/ml EGF, and 10 ng/ml bFGF; MEM EBS was added to make the volume up to 500 ml. A 10 mM BSO solution was prepared by dissolving 444 mg BSO in 200 ml of medium with subsequent filter-sterilization. During the course of the experiments, this solution was stored at +4° C. The cells were obtained from the Coriell Cell Repositories (Camden, N.J.; repository number GM04078) and grown in 10 cm tissue culture plates. Every third day, they were split at a 1:3 ratio.
The test samples were supplied in 1.5 ml glass vials. The compounds were diluted with DMSO, ethanol or PBS to result in a 5 mM stock solution. Once dissolved, they were stored at −20° C. Reference antioxidants (Idebenone, decylubiquinone, α-tocopherol acetate and trolox) were dissolved in DMSO.
as §2, §3
as §4, with “The medium from all plates was discarded, and the remaining liquid was removed by gently tapping the plate inversed onto a paper towel.” left out

Compound | EC50 [1] [nM] | EC50 [2] [nM] | EC50 [3] [nM] | EC50 [4] [nM]
COc1cccc(C2=C(CCC(C)(C)O)C(=O)C(C)=C(C)C2=O)c1 [2-(3-hydroxy-3-methylbutyl)-3-(3-methoxyphenyl)-5,6-dimethyl-cyclohexa-2,5-diene-1,4-dione] | < 200 |  |  | 
COc1cc(F)ccc1C1=C(CCC(C)(C)O)C(=O)C(C)=C(C)C1=O [2-(4-fluoro-2-methoxyphenyl)-3-(3-hydroxy-3-methylbutyl)-5,6-dimethylcyclohexa-2,5-diene-1,4-dione] | < 200 |  |  | 
CC1=C(C)C(=O)C(c2ccc3c(c2)OCO3)=C(CCC(C)(C)O)C1=O [2-(benzo[d][1,3]dioxol-5-yl)-3-(3-hydroxy-3-methylbutyl)-5,6-dimethylcyclohexa-2,5-diene-1,4-dione] | < 200 |  |  | 
CC1=C(C)C(=O)C(c2ccc(C#N)cc2)=C(CCC(C)(C)O)C1=O [4-(2-(3-hydroxy-3-methylbutyl)-4,5-dimethyl-3,6-dioxocyclohexa-1,4-dienyl)benzonitrile] | < 200 |  |  | 
CC1=C(CCC(C)(C)O)C(=O)C(c2ccc(C(F)(F)F)cc2)=C(C)C1=O [Example 1, 2-(3-Hydroxy-3-methylbutyl)-3,5-dimethyl-6-(4-(trifluoromethyl)phenyl)cyclohexa-2,5-diene-1,4-dione] | < 200 | < 200 | < 200 | < 200
COc1ccc(C2=C(C)C(=O)C(C)=C(CCC(C)(C)O)C2=O)cc1 [Example 2, 2-(3-Hydroxy-3-methylbutyl)-6-(4-methoxyphenyl)-3,5-dimethylcyclohexa-2,5-diene-1,4-dione] | < 200 | < 200 | < 200 | < 200
CC1=C(CCC(C)(C)O)C(=O)C(c2ccc(C#N)cc2)=C(C)C1=O [Example 3, 4-(5-(3-Hydroxy-3-methylbutyl)-2,4-dimethyl-3,6-dioxocyclohexa-1,4-dienyl)benzonitrile] |  | < 200 | < 200 | < 200
CC1=C(CCC(C)(C)O)C(=O)C(c2ccc3ccccc3c2)=C(C)C1=O [Example 4, 2-(3-Hydroxy-3-methylbutyl)-3,5-dimethyl-6-(naphthalen-2-yl)cyclohexa-2,5-diene-1,4-dione] | < 200 | < 200 | < 200 | < 200
CC1=C(CCC(C)(C)O)C(=O)C(c2ccc(F)c(F)c2)=C(C)C1=O [Example 5, 2-(3,4-Difluorophenyl)-6-(3-hydroxy-3-methylbutyl)-3,5-dimethylcyclohexa-2,5-diene-1,4-dione] | < 200 | < 200 | < 200 | < 200
CC1=C(CCC(C)(C)O)C(=O)C(c2ccc(F)cc2)=C(C)C1=O [Example 6, 2-(4Fluorophenyl)-6-(3-hydroxy-3-methylbutyl)-3,5-dimethylcyclohexa-2,5-diene-1,4-dione] | < 200 | < 200 | < 200 | < 200
CC1=C(C)C(=O)C(c2ccc(F)cc2)=C(CCC(C)(C)O)C1=O [Example 9, 2-(4-Fluorophenyl)-3-(3-hydroxy-3-methylbutyl)-5,6-dimethylcyclohexa-2,5-diene-1,4-dione] | < 200 |  | < 200 | < 200
CC1=C(C)C(=O)C(c2ccccc2)=C(CCC(C)(C)O)C1=O [Example 10, 2-(3-Hydroxy-3-methylbutyl)-5,6-dimethyl-3-phenylcyclohexa-2,5-diene-1,4-dione] |  | < 200 |  | 
CC1=C(C)C(=O)C(c2ccc(C(F)(F)F)cc2)=C(CCC(C)(C)O)C1=O [Example 11, 2-(3-Hydroxy-3-methylbutyl)-5,6-dimethyl-3-(4-(trifluoromethyl)phenyl)cyclohexa-2,5-diene-1,4-dione] | < 200 | < 200 | < 200 | < 200
COc1ccc(C2=C(CCC(C)(C)O)C(=O)C(C)=C(C)C2=O)cc1 [Example 12, 2-(3-Hydroxy-3-methylbutyl)-3-(4-methoxyphenyl)-5,6-dimethylcyclohexa-2,5-diene-1,4-dione] | < 200 |  | < 200 | 
CC1=C(C)C(=O)C(c2cc3ccccc3o2)=C(CCC(C)(C)O)C1=O [Example 14, 2-(Benzofuran-2-yl)-3-(3-hydroxy-3-methylbutyl)-5,6-dimethylcyclohexa-2,5-diene-1,4-dione] |  | < 200 | < 200 | 
CC1=C(C)C(=O)C(c2ccc(F)c(F)c2)=C(CCC(C)(C)O)C1=O [Example 21, 2-(3,4-Difluorophenyl)-3-(3-hydroxy-3-methylbutyl)-5,6-dimethylcyclohexa-2,5-diene-1,4-dione] | < 200 |  | < 200 | < 200
CC1=C(C)C(=O)C(c2ccccc2F)=C(CCC(C)(C)O)C1=O [Example 22, 2-(2-Fluorophenyl)-3-(3-hydroxy-3-methylbutyl)-5,6-dimethylcyclohexa-2,5-diene-1,4-dione] | < 200 |  |  | 
CC1=C(C)C(=O)C(Cc2ccccc2)=C(CCC(C)(C)O)C1=O [Example 23, 2-Benzyl-3-(3-hydroxy-3-methylbutyl)-5,6-dimethylcyclohexa-2,5-diene-1,4-dione] | < 200 |  | < 200 | < 200
CC1=C(C)C(=O)C(CCC(C)(C)O)=C(CCc2ccccc2)C1=O [Example 25, 2-(3-Hydroxy-3-methylbutyl)-5,6-dimethyl-3-phenethylcyclohexa-2,5-diene-1,4-dione] | < 200 | < 200 | < 200 | 
CC1=C(C)C(=O)C(C(O)Cc2ccccc2)=C(CCC(C)(C)O)C1=O (stereo not shown) [Example 26, 2-(1-Hydroxy-2-phenylethyl)-3-(3-hydroxy-3-methylbutyl)-5,6-dimethylcyclohexa-2,5-diene-1,4-dione] | < 200 | < 200 |  | < 200
